According to patent US20210255193A1, “LYSINE REACTIVE PROBES AND USES THEREOF” (The Scripps Research Institute, priority 2017, published 2021):
One block for each compound: values may come before it.

Legend:
Assay in all cases: competitive isoTOP-ABPP
Assay type in all cases: binding
[1] = molecular target: T1, GTPBP3 tRNA modification GTPase GTPBP3, mitochondrial (Homo sapiens, UniProt Q969Y2); conditions: for isoTOP-ABPP ratio (R) at liganded lysine Q969Y2_K492: sol, 231
T1 construct: isoTOP-ABPP experiments performed in cell lysates (in vitro); endogenous in cells; host or cells: soluble proteome of human cancer cell lines (MDA-MB-231; Ramos and Jurkat also prepared)
T1 sequence (Q969Y2 21-492): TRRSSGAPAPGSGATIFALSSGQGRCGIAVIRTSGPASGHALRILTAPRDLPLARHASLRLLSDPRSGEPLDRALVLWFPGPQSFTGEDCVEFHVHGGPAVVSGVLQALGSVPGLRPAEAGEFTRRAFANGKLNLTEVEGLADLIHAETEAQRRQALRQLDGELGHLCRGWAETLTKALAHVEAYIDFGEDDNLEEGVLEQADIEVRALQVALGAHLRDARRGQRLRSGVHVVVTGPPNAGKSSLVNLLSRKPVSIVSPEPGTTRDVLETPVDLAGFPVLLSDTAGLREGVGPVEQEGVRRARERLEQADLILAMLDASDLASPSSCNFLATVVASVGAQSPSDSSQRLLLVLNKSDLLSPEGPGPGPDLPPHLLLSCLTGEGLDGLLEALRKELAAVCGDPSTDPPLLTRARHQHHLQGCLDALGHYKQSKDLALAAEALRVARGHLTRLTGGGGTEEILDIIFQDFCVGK
Outline: (§1)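 Lysine engagement is reported as R, the MS1 peak-area ratio of heavy-tagged DMSO to light-tagged compound samples. Final fragment concentrations were 50 μM for activated esters and 100 μM for guanidinylating agents; STP-alkyne probe 0.1 mM, 1 h.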

[2] = molecular target: T2, GBAS Protein NipSnap homolog 2 (Homo sapiens, UniProt O75323); conditions: for isoTOP-ABPP ratio (R) at liganded lysine O75323_K75: sol, 231
T2 construct: isoTOP-ABPP experiments performed in cell lysates (in vitro); endogenous in cells; host or cells: MDA-MB-231 soluble lysate
T2 sequence (O75323 24-286): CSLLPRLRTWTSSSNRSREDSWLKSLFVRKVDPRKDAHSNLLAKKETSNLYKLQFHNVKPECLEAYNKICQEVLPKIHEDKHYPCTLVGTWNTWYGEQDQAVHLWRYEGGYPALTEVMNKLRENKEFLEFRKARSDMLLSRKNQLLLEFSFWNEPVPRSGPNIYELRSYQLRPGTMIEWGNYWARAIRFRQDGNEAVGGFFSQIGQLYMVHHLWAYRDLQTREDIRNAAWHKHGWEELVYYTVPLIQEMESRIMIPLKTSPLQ
Outline: as §1

[3] = molecular target: T3, CNOT4 CCR4-NOT transcription complex subunit 4 (Homo sapiens, UniProt O95628); conditions: for isoTOP-ABPP ratio (R) at liganded lysine O95628_K134: sol, 231
T3 construct: isoTOP-ABPP experiments performed in cell lysates (in vitro); endogenous in cells; host or cells: MDA-MB-231 soluble lysate
T3 sequence (O95628 1-575): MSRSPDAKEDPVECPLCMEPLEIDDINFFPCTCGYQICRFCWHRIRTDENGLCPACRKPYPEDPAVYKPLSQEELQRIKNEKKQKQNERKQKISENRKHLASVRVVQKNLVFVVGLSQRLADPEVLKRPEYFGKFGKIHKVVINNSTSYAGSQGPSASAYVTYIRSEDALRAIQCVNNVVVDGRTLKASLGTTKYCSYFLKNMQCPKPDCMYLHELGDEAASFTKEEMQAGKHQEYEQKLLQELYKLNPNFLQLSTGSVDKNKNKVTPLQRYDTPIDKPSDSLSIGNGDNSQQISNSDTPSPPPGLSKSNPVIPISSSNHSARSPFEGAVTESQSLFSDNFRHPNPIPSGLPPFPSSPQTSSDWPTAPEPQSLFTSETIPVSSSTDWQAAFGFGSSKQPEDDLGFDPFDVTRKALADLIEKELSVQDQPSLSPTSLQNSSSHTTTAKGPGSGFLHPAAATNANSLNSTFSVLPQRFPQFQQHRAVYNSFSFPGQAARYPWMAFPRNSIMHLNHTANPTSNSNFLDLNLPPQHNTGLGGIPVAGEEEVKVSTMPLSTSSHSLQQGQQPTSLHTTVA
Outline: as §1

SMILES: O=C(Oc1ccc([N+](=O)[O-])cc1[N+](=O)[O-])C(c1ccccc1)(c1ccccc1)c1ccccc1 [fragment 42, 2,4-Dinitrophenyl 2,2,2-triphenylacetate]
- isoTOP-ABPP ratio (R) at liganded lysine Q969Y2_K492 ([1]; 50 uM, in vitro): 0.9
- isoTOP-ABPP ratio (R) at liganded lysine O75323_K75 ([2]; 50 uM, in vitro): 0.9
- isoTOP-ABPP ratio (R) at liganded lysine O95628_K134 ([3]; 50 uM, in vitro): 1.0

- R value (DMSO/fragment) for probe 1 labeling ([1]; Q969Y2_K492, 50 uM, 231 sol, in vitro): 1.3
- R value (DMSO/fragment) for probe 1 labeling ([2]; O75323_K75, 50 uM, 231 sol, in vitro): 0.8
- R value (DMSO/fragment) for probe 1 labeling ([3]; O95628_K134, 50 uM, 231 sol, in vitro): 1.2
SMILES: O=C(Oc1c(F)c(F)c(F)c(F)c1F)c1cc(C(F)(F)F)cc(C(F)(F)F)c1 [fragment 21, Pentafluorophenyl 3,5-bis(trifluoromethyl)benzoate]

SMILES: O=C(CCc1cn(-c2ccccc2)nc1-c1ccccc1)Oc1ccc([N+](=O)[O-])cc1[N+](=O)[O-] [fragment 29, 2,4-Dinitrophenyl 3-(1,3-diphenyl-1H-pyrazol-4-yl)propanoate]
- isoTOP-ABPP reactivity ratio at lysine Q969Y2_K492 ([1]; 50 uM, 231 sol, in vitro): 20.0
- isoTOP-ABPP reactivity ratio at lysine O75323_K75 ([2]; 50 uM, 231 sol, in vitro): 1.0
- isoTOP-ABPP reactivity ratio at lysine O95628_K134 ([3]; 50 uM, 231 sol, in vitro): 1.1

SMILES: N#Cc1ccc(C(=O)Oc2ccc([N+](=O)[O-])cc2[N+](=O)[O-])cc1 [fragment 44, 2,4-Dinitrophenyl 4-cyanobenzoate]
- isoTOP-ABPP ratio, lysine Q969Y2_K492 ([1]; 50 uM_231_sol_in vitro): 0.9
- isoTOP-ABPP ratio, lysine O75323_K75 ([2]; 50 uM_231_sol_in vitro): 1.1
- isoTOP-ABPP ratio, lysine O95628_K134 ([3]; 50 uM_231_sol_in vitro): 2.0

- isoTOP-ABPP reactivity ratio at lysine Q969Y2_K492 ([1]; 50 uM, 231 sol, in vitro): 5.0
- isoTOP-ABPP reactivity ratio at lysine O75323_K75 ([2]; 50 uM, 231 sol, in vitro): 4.2
- isoTOP-ABPP reactivity ratio at lysine O95628_K134 ([3]; 50 uM, 231 sol, in vitro): 1.1
SMILES: O=C(CCc1coc2cc(F)ccc2c1=O)Oc1c(F)c(F)c(F)c(F)c1F [fragment 26, Pentafluorophenyl 3-(7-fluoro-4-oxo-4H-chromen-3-yl)propanoate]

SMILES: O=C(CC12CC3CC(CC(C3)C1)C2)Oc1ccc([N+](=O)[O-])cc1[N+](=O)[O-] [fragment 38, 2,4-Dinitrophenyl 2-(adamantan-1-yl)acetate]
- isoTOP-ABPP ratio (R) at liganded lysine Q969Y2_K492 ([1]; 50 uM, in vitro): 1.1
- isoTOP-ABPP ratio (R) at liganded lysine O75323_K75 ([2]; 50 uM, in vitro): 1.3
- isoTOP-ABPP ratio (R) at liganded lysine O95628_K134 ([3]; 50 uM, in vitro): 1.2

- isoTOP-ABPP ratio, lysine Q969Y2_K492 ([1]; 100 uM_231_sol_in vitro): 0.9
- isoTOP-ABPP ratio, lysine O75323_K75 ([2]; 100 uM_231_sol_in vitro): 1.3
- isoTOP-ABPP ratio, lysine O95628_K134 ([3]; 100 uM_231_sol_in vitro): 1.7
SMILES: CC(C)(C)OC(=O)N=C(NC(=O)OC(C)(C)C)n1cccn1 [fragment 50, reference compound]

- isoTOP-ABPP ratio, lysine Q969Y2_K492 ([1]; 50 uM_231_sol_in vitro): 1.7
- isoTOP-ABPP ratio, lysine O75323_K75 ([2]; 50 uM_231_sol_in vitro): 1.0
- isoTOP-ABPP ratio, lysine O95628_K134 ([3]; 50 uM_231_sol_in vitro): 1.5
SMILES: O=C(Oc1c(F)c(F)c(C(F)(F)F)c(F)c1F)c1cc(C(F)(F)F)cc(C(F)(F)F)c1 [fragment 47, 2,3,5,6-Tetrafluoro-4-(trifluoromethyl)phenyl 3,5-bis(trifluoromethyl)benzoate]
